Among the test systems are TK-10; IGROV-1; ACHN; OVCAR-5; M14; HCC 2998; MDA-MB-231; EKVX; MDA-MB-435; NCI-H23; PC-3; MOLT-4; SK-MEL-28; U-251; SK-MEL-5; SF-295; CCRF-CEM; HCT-116; LOX IMVI; NCI/ADR-RES.
Common to all, as to experiment: NCI anticancer screen, dose series, 48 h

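Values below derive from 48-hour exposures of cells grown in 96-well plates, with endpoints linearly interpolated between the two concentrations bracketing the appropriate inhibition level. GI50 is the concentration that inhibits growth by half.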 The source made the active and inactive calls. Cut-off read from the data, not from the text of the source: active = GI50 up to about 1.1 µM and inactive = higher.

`COC(=O)c1ccc(-n2c(C)nc(=O)c(-c3ccccc3)c2C)cc1`: the GI50 with TK-10, with IGROV-1, in the test with ACHN, in the test with OVCAR-5, in the test on M14 and with HCC 2998 was > 100 µM (inactive) each time. The GI50 in the test on MDA-MB-231, with EKVX, with MDA-MB-435, in the test with NCI-H23, in the test with PC-3 and in the test on MOLT-4 was > 100 µM (inactive) in each case. The GI50 with SK-MEL-28, with U-251, in the test on SK-MEL-5, in the test on SF-295, in the test on CCRF-CEM and with HCT-116 was > 100 µM (inactive) throughout. Besides, the GI50 in the test on LOX IMVI and in the test with NCI/ADR-RES was > 100 µM (inactive) throughout.

In the case of `CC[N+](CC)(CCNCC(N)=O)CC(N)=O`, the GI50 in the test on TK-10, with IGROV-1, in the test on ACHN, in the test on OVCAR-5, with M14 and in the test with HCC 2998 was > 10 µM (inactive) throughout. For the same compound, the GI50 in the test with MDA-MB-231, in the test on EKVX, in the test on MDA-MB-435, in the test with NCI-H23, in the test with PC-3 and in the test on MOLT-4 was > 10 µM (inactive) each time. In addition, the GI50 in the test with SK-MEL-28, with U-251, in the test on SK-MEL-5, in the test with SF-295, in the test on CCRF-CEM and with HCT-116 was > 10 µM (inactive) throughout. Moreover, the GI50 in the test with LOX IMVI and in the test on NCI/ADR-RES was > 10 µM (inactive) in each case.

As to `COc1ccc(/N=C(/SS/C(=N/c2ccc(OC)cc2)c2ccc([N+](=O)[O-])o2)c2ccc([N+](=O)[O-])o2)cc1`, the GI50 is 2.38 µM (inactive) with TK-10; 1.75 µM (inactive) in the test on IGROV-1; 1.41 µM (inactive) in the test on ACHN; 2.2 µM (inactive) with OVCAR-5; 1.7 µM (inactive) in the test with M14; 1.32 µM (inactive) in the test with HCC 2998. Besides, the GI50 in the test on MDA-MB-231 was 2.77 µM (inactive); in the test with EKVX, 1.52 µM (inactive); with MDA-MB-435, 1.59 µM (inactive); with NCI-H23, 1.45 µM (inactive); in the test on PC-3, 0.838 µM (active); in the test on MOLT-4, 4.08 µM (inactive). Besides, the GI50 in the test with SK-MEL-28 was 2.49 µM (inactive); in the test with U-251, 0.35 µM (active); with SK-MEL-5, 5.75 µM (inactive); with SF-295, 2.16 µM (inactive); in the test on CCRF-CEM, 2.08 µM (inactive); in the test on HCT-116, 1.18 µM (inactive). The GI50 in the test on LOX IMVI is 1.78 µM (inactive); with NCI/ADR-RES, 1.39 µM (inactive).

As for `COC(=O)CC(CNC(=O)OCc1ccccc1)OCc1ccc(OC)cc1` (stereo not given), the GI50 in the test on TK-10, with IGROV-1, in the test on ACHN, with OVCAR-5, in the test with M14 and in the test with HCC 2998 was > 100 µM (inactive) in each case. In addition, the GI50 in the test with MDA-MB-231 is > 100 µM (inactive); with EKVX it was > 100 µM (inactive); in the test on MDA-MB-435 it was > 100 µM (inactive); in the test on NCI-H23, 67.5 µM (inactive); in the test with PC-3, 99.5 µM (inactive); in the test with MOLT-4, > 100 µM (inactive). The GI50 in the test with SK-MEL-28, with U-251, in the test on SK-MEL-5, with SF-295, with CCRF-CEM and with HCT-116 was > 100 µM (inactive) in each case. Also, the GI50 in the test with LOX IMVI and in the test with NCI/ADR-RES was > 100 µM (inactive) each time.

Regarding `CCSc1nc(N2CCOCC2)c2cn[nH]c2n1`, the GI50 is 47.8 µM (inactive) with TK-10; 9.64 µM (inactive) in the test with IGROV-1; 31.7 µM (inactive) with ACHN; 77.4 µM (inactive) with OVCAR-5; > 100 µM (inactive) in the test on M14; > 100 µM (inactive) with HCC 2998. For the same compound, the GI50 was > 100 µM (inactive) in the test on MDA-MB-231; > 100 µM (inactive) with EKVX; 41.8 µM (inactive) with MDA-MB-435; 48.1 µM (inactive) in the test on NCI-H23; 22.1 µM (inactive) with PC-3; > 100 µM (inactive) with MOLT-4. In addition, the GI50 in the test on SK-MEL-28 was 88.5 µM (inactive); with U-251, > 100 µM (inactive); with SK-MEL-5 it was 50.6 µM (inactive); in the test with SF-295, 54.8 µM (inactive); in the test with CCRF-CEM it was 60.5 µM (inactive); in the test on HCT-116, > 100 µM (inactive). The GI50 is 32.4 µM (inactive) in the test on LOX IMVI and > 100 µM (inactive) in the test with NCI/ADR-RES.

Turning to `O=C(O)CC1NCc2cc3ccccc3nc21` (stereo not given), the GI50 in the test on TK-10, with IGROV-1, with ACHN, in the test with OVCAR-5, in the test with M14 and in the test on HCC 2998 was > 100 µM (inactive) throughout. Further, the GI50 is > 100 µM (inactive) with MDA-MB-231; 61.9 µM (inactive) in the test on EKVX; > 100 µM (inactive) with MDA-MB-435; > 100 µM (inactive) in the test with NCI-H23; > 100 µM (inactive) in the test with PC-3; > 100 µM (inactive) in the test with MOLT-4. For the same compound, the GI50 with SK-MEL-28, with U-251, with SK-MEL-5, with SF-295, in the test on CCRF-CEM and in the test on HCT-116 was > 100 µM (inactive) throughout. Moreover, the GI50 with LOX IMVI and in the test on NCI/ADR-RES was > 100 µM (inactive) each time.

In the case of `Cc1nc2ccccc2n1COC(Cn1ccnc1)c1ccc(Cl)cc1Cl` (stereo not given), the GI50 is 83.9 µM (inactive) in the test on TK-10; > 100 µM (inactive) with IGROV-1; 34.8 µM (inactive) in the test on ACHN; > 100 µM (inactive) in the test on OVCAR-5; > 100 µM (inactive) with M14; 76 µM (inactive) with HCC 2998. Also, the GI50 in the test with MDA-MB-231 was > 100 µM (inactive); in the test on EKVX it was 7.1 µM (inactive); in the test on MDA-MB-435 it was 50.1 µM (inactive); in the test on NCI-H23, 55.8 µM (inactive); with PC-3, 23.4 µM (inactive); in the test on MOLT-4, 30.1 µM (inactive). In addition, the GI50 in the test with SK-MEL-28 is > 100 µM (inactive); with U-251, 86.9 µM (inactive); in the test with SK-MEL-5, 22.4 µM (inactive); in the test with SF-295, 71 µM (inactive); with CCRF-CEM, 88.9 µM (inactive); in the test on HCT-116, 53.7 µM (inactive). Moreover, the GI50 in the test with LOX IMVI is 50.8 µM (inactive); in the test on NCI/ADR-RES it was 99.8 µM (inactive).

Turning to `CSCCC(N)C(=O)NCCNc1ccc(NCCNC(=O)C(N)CCSC)c2c1C(=O)c1ccccc1C2=O` (stereo not given), the GI50 with TK-10 is 2.09 µM (inactive); in the test on IGROV-1, 2.12 µM (inactive); with ACHN it was 0.456 µM (active); in the test with OVCAR-5, 1.99 µM (inactive); with M14, 3.38 µM (inactive); with HCC 2998, 0.716 µM (active). Further, the GI50 in the test with MDA-MB-231 was 1.16 µM (inactive); in the test on EKVX, 2.46 µM (inactive); in the test on MDA-MB-435 it was 1.86 µM (inactive); in the test with NCI-H23 it was 1.05 µM (active); in the test on PC-3, 1.84 µM (inactive); in the test with MOLT-4, 0.123 µM (active). The GI50 is 1.75 µM (inactive) in the test with SK-MEL-28; 0.6 µM (active) with U-251; 3.48 µM (inactive) in the test on SK-MEL-5; 1.57 µM (inactive) in the test on SF-295; 0.528 µM (active) in the test with CCRF-CEM; 0.424 µM (active) in the test on HCT-116. The GI50 with LOX IMVI is 0.624 µM (active); in the test on NCI/ADR-RES, 2.21 µM (inactive).

As to `COc1cc(/C=C\c2ccc(C)cc2)cc(OC)c1OC`, the GI50 in the test on TK-10 was 0.0731 µM (active); in the test with IGROV-1, 0.0466 µM (active); in the test with ACHN it was 0.0637 µM (active); in the test with OVCAR-5 it was 0.116 µM (active); with M14 it was 0.00723 µM (active); in the test with HCC 2998, 0.0191 µM (active). The GI50 in the test on MDA-MB-231 was 0.0259 µM (active); in the test on EKVX, 0.0721 µM (active); in the test with MDA-MB-435, 0.00264 µM (active); with NCI-H23 it was 0.0363 µM (active); in the test with PC-3 it was 0.0123 µM (active); in the test with MOLT-4, 0.00697 µM (active). The GI50 in the test on SK-MEL-28 is 0.0167 µM (active); in the test on U-251, 0.00441 µM (active); in the test on SK-MEL-5 it was 0.00336 µM (active); in the test with SF-295, 0.00188 µM (active); in the test with CCRF-CEM it was 0.00227 µM (active); with HCT-116 it was 0.00106 µM (active). Also, the GI50 in the test with LOX IMVI was 0.00433 µM (active); with NCI/ADR-RES, 0.00767 µM (active).

Regarding `O=C(/C=C/c1ccc(/C=C/C(=O)c2ccc(O)cc2)cc1)c1ccc(O)cc1`, the GI50 in the test on TK-10 is > 100 µM (inactive); in the test with IGROV-1 it was > 10 µM (inactive); with ACHN, > 100 µM (inactive); in the test on OVCAR-5, > 100 µM (inactive); in the test on M14, > 100 µM (inactive); in the test with HCC 2998, > 100 µM (inactive). Besides, the GI50 in the test with MDA-MB-231, with EKVX, with MDA-MB-435, in the test with NCI-H23, with PC-3 and in the test on MOLT-4 was > 100 µM (inactive) each time. In addition, the GI50 in the test with SK-MEL-28 is > 100 µM (inactive); in the test on U-251, 16.4 µM (inactive); in the test on SK-MEL-5 it was > 100 µM (inactive); in the test with SF-295 it was > 100 µM (inactive); in the test on CCRF-CEM it was > 100 µM (inactive); with HCT-116 it was > 100 µM (inactive). Moreover, the GI50 is 33.8 µM (inactive) in the test with LOX IMVI and > 100 µM (inactive) with NCI/ADR-RES.
